Measurements from patent US20110046079A1, “Use of Proton Pump Inhibitors as Drug Delivery Adjuvants” (priority 2008, published 2011).

What was measured:
[1] = test system: rat gastric corpus mucosa; assay: Transepithelial electrical resistance and short circuit current in Ussing chambers; settings: 0.05 mM digoxin, 0.1 mM phenytoin
Description: (§1) Water-jacketed reservoirs maintained chamber saline at 37° C.
(§2) In order to confirm stimulation of acid secretion by secretagogue addition and to verify the efficacy of the PPI, mucosal fluid compartment pH was recorded at intervals throughout the experiment with a manual electrode (Denver Instruments, Denver, Colo.). Ag/AgCl voltage and current electrodes were used to measure PD (potential difference) and ISC (short circuit current) approximately every five minutes for the duration of the experiment, as previously described (Hameed et al. (2004) Dig. Dis. Sci., 49:1381-1386), using two single-channel current/voltage clamps (McGrath Research and Technology). Ohm's Law was used to calculate transepithelial electrical resistance across the tissue.
Electrical parameters were monitored throughout the duration of the experiment. Tissues were maintained under open circuit conditions. […] Tissue voltage (potential difference), short circuit current, and transepithelial resistance were recorded approximately every five minutes for the duration of the experiment, by passing a one-second current pulse equal to biological current to bring the potential difference to zero using a current/voltage clamp (McGrath Research & Technology). Transepithelial resistance was calculated by dividing open circuit potential difference by short circuit current (Ohm's law).

[2] = test system: rat gastric corpus mucosa; assay: Transepithelial drug flux studies (3H-digoxin, 14C-phenytoin, mucosal to serosal) before and after omeprazole or DMSO; type: in vitro ADME; settings: for Post-Omeprazole Flux Value: after 200 μM omeprazole; for Post-Omeprazole Flux Value / Post-DMSO Flux Value: corrected by TLC; for Pre-Omeprazole Flux Value: before 200 μM omeprazole; for % Increase in Flux After DMSO / Post-DMSO Flux Value / Pre-DMSO Flux Value: vehicle control tissue; for Pre-DMSO Flux Value: mean ± SEM
Description: Sprague Dawley male rats weighing approximately 400 grams were sacrificed by decapitation and the stomach was quickly removed, cut along the greater curvature, and flushed of luminal contents. The serosal membrane was then stripped from the corpus region and two equal sized pieces of corpus mucosa were mounted in two separate Ussing chambers with exposed tissue areas of 1.13 cm^2. Chambers were connected to 15 mL gas-lift reservoirs filled with un-buffered saline aerated with 100% O2 and bicarbonate-buffered saline aerated with 95% O2/5% CO2 on the mucosal and serosal sides, respectively. Saline temperature was held constant at 37° C. by a jacketed water bath surrounding the reservoirs. 30 minutes at 37° C. was allowed for tissue equilibration. In paired experiments, one tissue served as (vehicle) ‘control’, and the other as omeprazole-treated ‘experimental’.
After 30 minutes of tissue equilibration time in Ussing chambers, dibutyrl cyclic AMP (dBcAMP) (Sigma) was added to a final concentration of 1 mM to the serosal fluid chambers to stimulate acid secretion. […] The addition of the isotope marked the beginning of the flux period. 150 μL or 250 μL samples were taken from the serosal fluid compartment (opposite from which the isotope was added) for liquid scintillation counting (LSC). Samples were initially taken at 30 minute intervals for 90 minutes for the ^14C-phenytoin flux or at 15 minute intervals for 75 minutes for the ^3H-digoxin flux to establish the basal permeability rate (ρmoles/min/cm^2) across the tissue. 200 μM omeprazole (Sigma) (in DMSO) was then added to the mucosal and serosal sides of one chamber and an equivalent amount of DMSO (Sigma) was also added to both sides of the control chamber. Another series of serosal fluid samples were taken for LSC at 15 or 30 minute intervals for the remaining 60 minutes of ^3H-digoxin or ^14C-phenytoin flux experiments, respectfully, to determine flux rate of the radiolabeled drugs after omeprazole addition. In all cases of fluid sampling for liquid scintillation counting, an equal amount of fresh buffered saline was added back to the serosal side to prevent hydrostatic gradients from developing across the tissue. The flux of each isotope (ρmole/min/cm^2) was determined by calculating the linear regression slope of the graph of cpm versus time, and converting cpm to picomoles after determining the specific activity of the drug in the mucosal fluid.
To observe if the omeprazole-induced leak allows for permeation of certain small molecule drugs, ^3H-digoxin was added to the mucosal fluid compartment and saline samples were taken at 15 minute intervals from the serosal fluid compartments for a 135-minute flux period. Omeprazole and/or DMSO were added to their respective tissues 75 minutes after the addition of the isotope. Radioactivity present in the serosal fluid compartment was measured as a function of time before and after the addition of omeprazole or DMSO.

[3] = human, 50 micromolar
From the text: A portion of this flux is due to damage of the gastric tissue preparation during mounting in the Ussing chambers. To correct for flux due to edge damage, the flux rate was subtracted prior to omeprazole addition from the flux rate after omeprazole addition. However, the added issue of decline in cell viability over the course of any experiment, and its contribution to overall leak, still remains (this is generally observed in the modest decline in transepithelial electrical resistance over experimental running time).

[4] = test system: rat gastric corpus mucosa; type: in vitro ADME
Description: Additional saline samples were taken from the mucosal and serosal fluid compartments one minute before the addition of omeprazole/DMSO and at the end of the entire flux period to allow for thin-layer chromatography (TLC) analysis of radioactivity that crossed the tissue. TLC was performed to account for the potential contribution of radiolabeled metabolites to total radioactivity crossing the epithelial barrier, in the event of drugs entering gastric epithelial cells and metabolites being effluxed. Saline samples were taken from both surfaces of the tissue to determine possible degradation of the molecule upon exposure to the mucosal surface of the tissue as well as to analyze the chemical nature of the radioactivity that crossed the tissue. […] TLC was performed on silica gel 60 plates (Kodak) by spotting very small amounts of the concentrated sample. Plates were then placed in a sandwich tank and a variety of mobile phases were employed, including butanol/acetic acid/water (120:30:50), isopropanol/water (120:30), and ethyl acetate/methanol/water (81:11:8).

healthy controls = assay: Sucrose leak test before and after five days of omeprazole or famotidine; type: in vivo, human
Description: An 8 hour overnight urine sample was collected in a container with 5 ml of 10% thymol in isopropanol as antimicrobial preservative. A courier service picked up urine containers at the patient's home and delivered them to the research laboratory. Total urine volume and refractive index were measured and recorded. […] This amount of sucrose equates to the amount of sucrose which leaked from the upper GI lumen.
H-2 blockers such as PEPCID® (famotidine) also cause a GI leak. The instant study was first performed with 20 subjects, all healthy controls. Randomly 10 were put on PPIs (20 mg of omeprazole), 10 on H-2 blockers (40 mg of famotidine). These amounts are standard for acid suppression therapy. […] They were given doses of these drugs in the morning for five days. A sucrose leak test was done the night of the fifth and last day.
Therefore, a second H-2 blocker study was performed looking at leak in an n=5 group but doing evening doses of famotidine and maintaining the other aspects of the above study, with the post H-2 blocker leak test performed again the night of the 5th dose, but now only with a 4-6 hours after the 5th and final dose.

[5] = test system: rat gastric corpus mucosa; assay: Acid secretion (mucosal fluid pH) of dB-cAMP stimulated tissue in Ussing chambers; settings: Rattus norvegicus; 25 μM omeprazole, plateau; read-out: inhibition of acid secretion (no further decrease in mucosal fluid pH)
Description: as §1, §2
Mucosal and serosal saline pH measurements were taken at approximately five minute intervals using a manual electrode (Denver Instruments) to ensure that the tissue was secreting acid. Mucosal pH readings were also taken before and after the addition of omeprazole to document the action of omeprazole on inhibiting acid secretion. Tissue viability was confirmed at the end of each experiment by tissue exposure to 10 mM amiloride in the mucosal fluid compartment in order to inhibit short circuit current.

[6] = test system: rat gastric corpus mucosa; assay: Transepithelial flux of 14C-labeled probes (mannitol, sucrose, polyethylene glycol) before and after PPI; settings: for % Increase in Flux of 14C-[D]-mannitol: 200 μM PPI
Description: In each experiment, one adult male Sprague Dawley rat was sacrificed by decapitation. The stomach was removed, flushed, and stripped of its outer serosal membrane, while being frequently moistened with chilled, unbuffered saline. Two pieces of corpus mucosa were mounted in modified Ussing chambers, with exposed tissue surface area of 1.13 cm^2. Chambers were connected to gas-lift reservoirs, with a fluid volume of 17 mL per hemichamber. The mucosal hemichamber was filled with unbuffered saline (with 17 mM glucose) and kept aerated and perfused with 100% O2 at 37° C. […] Water-jacketed reservoirs maintained chamber saline at 37° C.
KRB was adjusted to a pH of 7.3-7.4.
Unbuffered saline was gassed with 100% O2 and was used to bathe the mucosal side of the gastric mucosa.
Approximately 30 minutes after tissues were mounted in Ussing chambers, dibutyrl cyclic AMP (dB-cAMP) (Sigma, St. Louis, Mo.) was added to the serosal sides of both chambers to a concentration of 1 mM in order to stimulate acid output by the tissue.
Three experiments were performed with each PPI, examining gastric permeability to ^14C-mannitol.
Three experiments were performed at each omeprazole concentration.

[7] = Kiley et al. (2007); cited from earlier work
patients = settings: Wilde et al. (1994); cited from earlier work

In the case of C[C@H]1O[C@@H](O[C@H]2[C@@H](O)C[C@H](O[C@H]3[C@@H](O)C[C@H](O[C@H]4CC[C@@]5(C)[C@H](CC[C@@H]6[C@@H]5C[C@@H](O)[C@]5(C)[C@@H](C7=CC(=O)OC7)CC[C@]65O)C4)O[C@@H]3C)O[C@@H]2C)C[C@H](O)[C@@H]1O [digoxin], the “effect of the probe drug itself on transepithelial electrical resistance or short circuit current” value [1] is reported as “not themselves exerting an effect”, the “% Increase in Flux After Omeprazole” value ([2]; 0.05 mM probe, 200 μM omeprazole, P<0.03 vs DMSO) is reported as 82.2% and the “% Increase in Flux After Omeprazole” value ([2]; 0.05 mM probe, 200 μM omeprazole, P<0.03 vs DMSO, listed as 3H-Digoxin) is reported as 82.2% ± 7.7%. The “Post-Omeprazole Flux Value” ([2]; 0.05 mM probe) was 9.4 ± 0.6 ρmole/min/cm^2, the “Pre-Omeprazole Flux Value” ([2]; 0.05 mM probe, 4 experiments) was 5.1 ± 0.2 ρmole/min/cm^2 and the “% Increase in Flux After DMSO” value ([2]; 0.05 mM probe) was 50.9%. For the same compound, the “Post-DMSO Flux Value” ([2]; 0.05 mM probe) was 7.2 ± 1.5 ρmole/min/cm^2, the “% Increase in Flux After DMSO” value ([2]; 0.05 mM probe, listed as 3H-Digoxin) was 50.9% ± 7.0% and the “Pre-DMSO Flux Value” ([2]; 0.05 mM probe, 4 experiments) was 4.8 ± 1.0 ρmole/min/cm^2. For the same compound, the “increase in flux of total radioactivity (tritium) after omeprazole addition” value ([2]; 200 μM omeprazole, not corrected by TLC, SEM) was 84%, the “increase in flux of total radioactivity (tritium), vehicle control” value ([2]; DMSO, not corrected by TLC) was 50% and the “final flux of true 3H-digoxin” value ([2]; in the presence of omeprazole, 0.05 mM digoxin) was “approximately 9 picomoles/min/cm^2”. For the same compound, the “final omeprazole-dependent 3H-digoxin flux” value ([2]; omeprazole flux minus DMSO flux, 4 paired experiments, SEM) was 1.8±0.4 picomoles/min/cm^2 and the “total gastric corpus-wide flux” value [3] was 900 picomoles/minute.

With O=C1NC(=O)C(c2ccccc2)(c2ccccc2)N1 [phenytoin] the “effect of the probe drug itself on transepithelial electrical resistance or short circuit current” value [1] was “not themselves exerting an effect”, the “% Increase in Flux After Omeprazole” value ([2]; 0.1 mM probe, 200 μM omeprazole, listed as 14C-Phenytoin) was 54.4% ± 7.7% and the “% Increase in Flux After Omeprazole” value ([2]; 0.1 mM probe, 200 μM omeprazole, listed as 14C-phenytoin) was 54.4%. For the same compound, the “Post-Omeprazole Flux Value” ([2]; 0.1 mM probe) was 119.4 ± 12.9 ρmole/min/cm^2, the “Pre-Omeprazole Flux Value” ([2]; 0.1 mM probe, 3 experiments) was 78.3 ± 11.4 ρmole/min/cm^2 and the “% Increase in Flux After DMSO” value ([2]; 0.1 mM probe) was 69.3%. The “Post-DMSO Flux Value” ([2]; 0.1 mM probe) was 120.0 ± 14.7 ρmole/min/cm^2, the “% Increase in Flux After DMSO” value ([2]; 0.1 mM probe, listed as 14C-Phenytoin) was 69.3% ± 13.9% and the “Pre-DMSO Flux Value” ([2]; 0.1 mM probe, 3 experiments) was 71.9 ± 9.8 ρmole/min/cm^2. For the same compound, the “metabolic breakdown on crossing the gastric mucosa” value [4] was “no metabolic breakdown” and the “co-migration of serosal radioactivity with pure phenytoin standard” value ([4]; male, Sprague Dawley, rat, 0.1 mM) was 100%.

With COc1ccc2[nH]c([S+]([O-])Cc3ncc(C)c(OC)c3C)nc2c1 (stereo not drawn) [omeprazole] the pre-med sucrose leak (healthy controls; baseline before medication, n=10 per group, SEM) was 42 mg, the “post med sucrose leak” value (healthy controls; morning doses for five days (20 mg omeprazole or 40 mg famotidine), test night of fifth day, n=10) was 212 mg and the inhibition at 25 µM [5] was 100%. For the same compound, the “% Increase in Flux of 14C-[D]-mannitol” value [6] was 68.72%, the “% Increase in Flux of 14C-[D]-mannitol” value ([6]; listed as Omeprazole) was 68.72 +/− 8.32% and the “effect on transepithelial permeability at low concentrations” value ([6]; 1, 5, or 10 μM omeprazole, 14C-mannitol) was “no significant effect”. For the same compound, the “concentration at which marked transepithelial permeability increase first occurred” value ([6]; 14C-mannitol, 1-200 μM tested, plateau at 100 and 200 μM) was 25 µM, the “increase of serum levels of digoxin by omeprazole” value [7] was “more than 350%” and the patients with diarrhea (patients) was 1-3%. For the same compound, the patients with headache (patients) was 0.5-2.4% and the patients with nausea (patients) was 0.9-2%.
